Molecules are shown by their SMILES.

One assay deals with T1, wild type NTRK1 enzyme (Homo sapiens, UniProt P04629).
T1 construct: purchased BPS Bioscience 40280
T1 sequence (P04629 440-796 limits assumed): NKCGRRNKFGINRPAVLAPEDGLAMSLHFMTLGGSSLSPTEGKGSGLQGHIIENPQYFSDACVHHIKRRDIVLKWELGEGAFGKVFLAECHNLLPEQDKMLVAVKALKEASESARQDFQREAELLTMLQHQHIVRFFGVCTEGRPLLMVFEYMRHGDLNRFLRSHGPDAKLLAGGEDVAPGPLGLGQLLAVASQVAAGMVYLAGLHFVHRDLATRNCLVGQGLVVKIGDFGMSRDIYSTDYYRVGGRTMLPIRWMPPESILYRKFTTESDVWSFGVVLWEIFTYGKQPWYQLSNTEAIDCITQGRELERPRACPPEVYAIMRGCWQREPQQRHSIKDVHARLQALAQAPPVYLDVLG
Description: NTRK1 Wild Type Assay at 1 mM ATP. The class given is biochemical. The conditions noted are these: 1 mM ATP; read-out: Enz NTRK1 IC50. On the procedure: NTRK1 Wild Type Assay at 1 mM ATP
The reaction was stopped by the addition of 70 μL of Stop buffer (100 mM HEPES pH 7.5, 0.015% Brij 35, 35 mM EDTA and 0.2% of Coating Reagent 3 (Caliper Lifesciences)). The plate was then read on a Caliper EZReader 2 (protocol settings: −1.7 psi, upstream voltage −500, downstream voltage −3000, post sample sip 35s).
In the case of `O=C(c1n[nH]c2ncnc(N[C@@H]3C=C[C@@H](O)[C@H]3O)c12)N1C[C@@H](F)C[C@@H]1c1cccc(F)c1F` [Compound 172], the IC50 is below 0.01 µM.
For the compound `O=C(c1n[nH]c2ncnc(N[C@@H]3CC[C@@H](O)[C@H]3O)c12)N1C[C@@H](F)C[C@@H]1c1cc(F)cc(F)c1` [Compound 173], the IC50 was below 0.01 µM.
Same read-out and setting: for `O=C(c1n[nH]c2ncnc(NC3CCOCC3O)c12)N1CC(F)CC1c1cc(F)cc(F)c1` (stereo not drawn) [Compound 174] the value was below 0.01 µM; for `O=C(c1n[nH]c2ncnc(NC3CCOCC3O)c12)N1CC(F)CC1c1cccc(F)c1F` (stereo not drawn) [Compound 175], below 0.01 µM.
Consider `O=C(c1n[nH]c2ncnc(N[C@@H]3CC[C@@H](O)[C@H]3O)c12)N1C[C@@H](F)C[C@@H]1c1cccc(F)c1F` [Compound 176], for which the half-inhibitory concentration (IC50) is below 0.01 µM.
For `O=C(c1n[nH]c2ncnc(N[C@@H]3CCC[C@H]3O)c12)N1C[C@@H](F)C[C@@H]1c1cc(F)cnc1Cl` [Compound 177], the IC50 was below 0.01 µM.
In the case of `O=C(c1n[nH]c2ncnc(NC3CC(F)CC3O)c12)N1CC(F)CC1c1cc(F)cc(F)c1` (stereo not drawn) [Compound 178], the half-inhibitory concentration (IC50) is below 0.01 µM.
As for `CN(Cc1cc(F)cc(OC(F)F)c1)C(=O)c1n[nH]c2ncnc(N[C@@H]3CC[C@@H](O)[C@H]3O)c12` [Compound 179], the IC50 was in the range of 0.01 to 0.1 µM.
With `CN(C(=O)c1n[nH]c2ncnc(NC3CC(C(F)F)CC3O)c12)C(CO)c1cc(F)ccc1F` (stereo not drawn) [Compound 180], the IC50 is below 0.01 µM.
For `N#Cc1cc(F)cc(C2CC(F)CN2C(=O)c2n[nH]c3ncnc(NC4CCOCC4O)c23)c1` (stereo not drawn) [Compound 181], the IC50 was below 0.01 µM.
On the same count and under the same terms, the value for `N#Cc1cc(F)cc(C2CC(F)CN2C(=O)c2n[nH]c3ncnc(NC4COCCC4O)c23)c1` (stereo not drawn) [Compound 182] was below 0.01 µM; that for `O=C(c1n[nH]c2ncnc(NC3CCOCC3O)c12)N1CC(F)CC1c1cc(F)ccc1Br` (stereo not drawn) [Compound 183] was below 0.01 µM.
Consider `N#CC1CC(O)C(Nc2ncnc3[nH]nc(C(=O)N4CC(F)CC4c4cc(F)ccc4F)c23)C1` (stereo not drawn) [Compound 184], for which the IC50 is below 0.01 µM.
Same read-out and setting: for `N#CC1CC(O)C(Nc2ncnc3[nH]nc(C(=O)N4CC(F)CC4c4cc(F)cc(F)c4)c23)C1` (stereo not drawn) [Compound 185] the value was below 0.01 µM; for `O=C(c1n[nH]c2ncnc(N[C@H]3[C@H](O)[C@H](O)[C@@H]4C[C@@H]43)c12)N1C[C@@H](F)C[C@@H]1c1cc(F)cc(F)c1` [Compound 188], below 0.01 µM.

The next assay concerns KM12 Cliff (G595R) cell line. Description: NTRK G595R mutant cellular assay (CellTiter-Glo growth inhibition). To be noted: 72 hr, CellTiter-Glo. The class given is cell-based. The method, boiled down:
(§1)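 KM12 (TPM3-NTRK1 fusion) or KM12 Cliff (G595R) cells at 1000 cells/well in 10% FBS media were dosed with compounds at varying concentrations in duplicate after overnight plating.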
In the case of `O=C(c1n[nH]c2ncnc(N[C@@H]3C=C[C@@H](O)[C@H]3O)c12)N1C[C@@H](F)C[C@@H]1c1cccc(F)c1F` [Compound 172], the 50% inhibitory concentration (IC50) lay in the range of 0.01 to 0.1 µM.
For `O=C(c1n[nH]c2ncnc(NC3CCOCC3O)c12)N1CC(F)CC1c1cc(F)cc(F)c1` (stereo not drawn) [Compound 174], the 50% inhibitory concentration (IC50) was below 0.01 µM.
The same measure, in the same setting: the value for `O=C(c1n[nH]c2ncnc(NC3CCOCC3O)c12)N1CC(F)CC1c1cccc(F)c1F` (stereo not drawn) [Compound 175] was 0.01 to 0.1 µM; that for `O=C(c1n[nH]c2ncnc(N[C@@H]3CC[C@@H](O)[C@H]3O)c12)N1C[C@@H](F)C[C@@H]1c1cccc(F)c1F` [Compound 176] was 0.01 to 0.1 µM; that for `O=C(c1n[nH]c2ncnc(NC3CC(F)CC3O)c12)N1CC(F)CC1c1cc(F)cc(F)c1` (stereo not drawn) [Compound 178] was 0.01 to 0.1 µM.
Still for that read-out and setting: for `CN(Cc1cc(F)cc(OC(F)F)c1)C(=O)c1n[nH]c2ncnc(N[C@@H]3CC[C@@H](O)[C@H]3O)c12` [Compound 179] the value was 0.1 to 1 µM; for `CN(C(=O)c1n[nH]c2ncnc(NC3CC(C(F)F)CC3O)c12)C(CO)c1cc(F)ccc1F` (stereo not drawn) [Compound 180], below 0.01 µM.
Consider `N#Cc1cc(F)cc(C2CC(F)CN2C(=O)c2n[nH]c3ncnc(NC4CCOCC4O)c23)c1` (stereo not drawn) [Compound 181], for which the IC50 was 0.01 to 0.1 µM.
As to `N#Cc1cc(F)cc(C2CC(F)CN2C(=O)c2n[nH]c3ncnc(NC4COCCC4O)c23)c1` (stereo not drawn) [Compound 182], the IC50 fell in the range of 0.01 to 0.1 µM.
`O=C(c1n[nH]c2ncnc(NC3CCOCC3O)c12)N1CC(F)CC1c1cc(F)ccc1Br` (stereo not drawn) [Compound 183] returned an IC50 below 0.01 µM.
`N#CC1CC(O)C(Nc2ncnc3[nH]nc(C(=O)N4CC(F)CC4c4cc(F)ccc4F)c23)C1` (stereo not drawn) [Compound 184] gave an IC50 below 0.01 µM.
`N#CC1CC(O)C(Nc2ncnc3[nH]nc(C(=O)N4CC(F)CC4c4cc(F)cc(F)c4)c23)C1` (stereo not drawn) [Compound 185]: the IC50 was below 0.01 µM.

The assay is the same for the next values; noted with them: Homo sapiens, KM12, 72 h, 72 hr, CellTiter-Glo.
Turning to `O=C(c1n[nH]c2ncnc(N[C@@H]3CC[C@@H](O)[C@H]3O)c12)N1C[C@@H](F)C[C@@H]1c1cc(F)cc(F)c1` [Compound 173], the IC50 was below 0.01 µM.
As for `O=C(c1n[nH]c2ncnc(N[C@@H]3CCC[C@H]3O)c12)N1C[C@@H](F)C[C@@H]1c1cc(F)cnc1Cl` [Compound 177], the IC50 is below 0.01 µM.
The compound `O=C(c1n[nH]c2ncnc(N[C@H]3[C@H](O)[C@H](O)[C@@H]4C[C@@H]43)c12)N1C[C@@H](F)C[C@@H]1c1cc(F)cc(F)c1` [Compound 188] showed an IC50 below 0.01 µM.

The next assay concerns KM12 wild type colon carcinoma cell line harboring the TPM3-NTRK1 fusion protein. Kind of assay: NTRK wild type cellular assay (CellTiter-Glo growth inhibition). The conditions noted are these: 72 hr, CellTiter-Glo; read-out: KM12 (WT) IC50. In kind it is cell-based. In a few lines: as §1
In the case of `O=C(c1n[nH]c2ncnc(N[C@@H]3C=C[C@@H](O)[C@H]3O)c12)N1C[C@@H](F)C[C@@H]1c1cccc(F)c1F` [Compound 172], the IC50 fell in the range of 0.01 to 0.1 µM.
Regarding `O=C(c1n[nH]c2ncnc(NC3CCOCC3O)c12)N1CC(F)CC1c1cc(F)cc(F)c1` (stereo not drawn) [Compound 174], the IC50 was below 0.01 µM.
With `O=C(c1n[nH]c2ncnc(NC3CCOCC3O)c12)N1CC(F)CC1c1cccc(F)c1F` (stereo not drawn) [Compound 175], the IC50 lay in the range of 0.01 to 0.1 µM.
As to `O=C(c1n[nH]c2ncnc(N[C@@H]3CC[C@@H](O)[C@H]3O)c12)N1C[C@@H](F)C[C@@H]1c1cccc(F)c1F` [Compound 176], the IC50 lay within 0.01 to 0.1 µM.
As to `O=C(c1n[nH]c2ncnc(NC3CC(F)CC3O)c12)N1CC(F)CC1c1cc(F)cc(F)c1` (stereo not drawn) [Compound 178], the IC50 lay in the range of 0.01 to 0.1 µM.
As to `CN(Cc1cc(F)cc(OC(F)F)c1)C(=O)c1n[nH]c2ncnc(N[C@@H]3CC[C@@H](O)[C@H]3O)c12` [Compound 179], the IC50 is 0.01 to 0.1 µM.
As for `CN(C(=O)c1n[nH]c2ncnc(NC3CC(C(F)F)CC3O)c12)C(CO)c1cc(F)ccc1F` (stereo not drawn) [Compound 180], the IC50 is below 0.01 µM.
For the compound `N#Cc1cc(F)cc(C2CC(F)CN2C(=O)c2n[nH]c3ncnc(NC4CCOCC4O)c23)c1` (stereo not drawn) [Compound 181], the IC50 was in the range of 0.01 to 0.1 µM.
With `N#Cc1cc(F)cc(C2CC(F)CN2C(=O)c2n[nH]c3ncnc(NC4COCCC4O)c23)c1` (stereo not drawn) [Compound 182], the IC50 was below 0.01 µM.
In the case of `O=C(c1n[nH]c2ncnc(NC3CCOCC3O)c12)N1CC(F)CC1c1cc(F)ccc1Br` (stereo not drawn) [Compound 183], the IC50 is below 0.01 µM.
The same measure, in the same setting: for `N#CC1CC(O)C(Nc2ncnc3[nH]nc(C(=O)N4CC(F)CC4c4cc(F)ccc4F)c23)C1` (stereo not drawn) [Compound 184] the value was below 0.01 µM.
Turning to `N#CC1CC(O)C(Nc2ncnc3[nH]nc(C(=O)N4CC(F)CC4c4cc(F)cc(F)c4)c23)C1` (stereo not drawn) [Compound 185], the IC50 is below 0.01 µM.

The same assay, now with this note: Homo sapiens, KM12, 72 h, 72 hr, CellTiter-Glo; read-out: KM12 (WT) IC50.
In the case of `O=C(c1n[nH]c2ncnc(N[C@@H]3CC[C@@H](O)[C@H]3O)c12)N1C[C@@H](F)C[C@@H]1c1cc(F)cc(F)c1` [Compound 173], the half-inhibitory concentration (IC50) was below 0.01 µM.
Regarding `O=C(c1n[nH]c2ncnc(N[C@@H]3CCC[C@H]3O)c12)N1C[C@@H](F)C[C@@H]1c1cc(F)cnc1Cl` [Compound 177], the IC50 was below 0.01 µM.
As for `O=C(c1n[nH]c2ncnc(N[C@H]3[C@H](O)[C@H](O)[C@@H]4C[C@@H]43)c12)N1C[C@@H](F)C[C@@H]1c1cc(F)cc(F)c1` [Compound 188], the IC50 was below 0.01 µM.

For the origin of these results see patent publication US11046697B2, “Compounds and compositions useful for treating disorders related to NTRK” (BLUEPRINT MEDICINES CORPORATION, priority 2015, dated 2021).
